Test results: patent US11311539B2, “Compositions and methods for treatment of fragile X syndrome” (Children's Hospital Medical Center, priority 2015, dated 2022)
Entries after “also recorded” stand apart in the source; their conditions may differ.

What was measured:
[1] = system: Fmr1 KO mice; test: Audiogenic seizure susceptibility (120 dB siren); assay type: in vivo; conditions: oral gavage, acute, 30 min prior to testing, juvenile mice, VEH approximately 60%
Description: (§1) Throughout experiments in Fmr1 KO mice, we treated animals with 1 mg/kg AZD7325, 3 mg/kg AZD7325 or vehicle (VEH) by oral gavage to mimic the human exposure route. Juvenile mice were treated acutely and adult mice were treated chronically prior to and throughout behavior analysis.
(§2) Audiogenic seizure susceptibility in Fmr1 KO mice, which is thought to be the result of increased neuronal activity in response to sensory stimuli, peaks around the third week of life and manifests as wild running which is typically followed by tonic-clonic seizure. […] In adulthood, Fmr1 KO mice have abnormal motor responses to sensory stimuli compared to WT mice in an acoustic startle paradigm. […] This type of deficit in the VEH-treated Fmr1 KO mice is reminiscent of the exaggerated anxiety responses people with FXS commonly display.

[2] = system: Fmr1 KO mice; test: Acoustic startle paradigm (whole body flinch, Vmax); assay type: in vivo; conditions: adult Fmr1 KO mice
Description: In adulthood, Fmr1 KO mice have abnormal motor responses to sensory stimuli compared to WT mice in an acoustic startle paradigm.
as §1, §2

[3] = system: Fmr1 KO mice; test: Conditioned fear response to mild foot shock (cued portion); assay type: in vivo; conditions: both dose levels (1 and 3 mg/kg), oral gavage, KO mice vs WT
Description: as §1, §2

[4] = system: Fmr1 KO mice; test: Novel object recognition paradigm; assay type: in vivo; conditions: low dose (1 mg/kg), oral gavage, KO mice vs KO+VEH
Description: as §1, §2
Based upon preclinical data in FXS implicating insufficient GABA(A) activity in the pathophysiology of the disorder combined with preclinical and human evidence (unpublished data) supporting the tolerability and effectiveness of improving aberrant behavior, 4-amino-8-(2-fluoro-6-methoxy-phenyl)-N-propyl-cinnoline-3-carboxamide is an ideal molecule to develop as a clinical treatment in humans with FXS.

[5] = system: FXS KO mice; conditions: preclinical literature; cited from earlier work
[6] = system: FXS KO mice; conditions: preclinical literature; cited from earlier work; remark: listed apart in the source
[7] = system: FXS KO mice; conditions: literature; cited from earlier work
[8] = system: FXS KO mice; conditions: literature; cited from earlier work; remark: listed apart in the source
[9] = system: FXS KO mice; conditions: literature; cited from earlier work; remark: listed apart in the source

For `CCCNC(=O)c1nnc2c(-c3c(F)cccc3OC)cccc2c1N` [AZD7325, 4-amino-8-(2-fluoro-6-methoxy-phenyl)-N-propyl-cinnoline-3-carboxamide], the “Fmr1 KO mice displaying wild running followed by seizure” value ([1]; high dose (3 mg/kg)) was 0%, the “Fmr1 KO mice displaying wild running followed by seizure” value ([1]; low dose (1 mg/kg)) was 11% and the “Whole body flinching, low-level acoustic startle” value ([2]; 82 db white noise burst, 10 trial blocks, chronic low dose) was “significantly reduced whole body flinching”. The “Whole body flinch response, high level acoustic stimulus” value ([2]; 120 dB stimulus, chronic treatment) was “improves this response to WT levels”, the “Conditioned fear response, cued portion of the test” value [3] was “normalizing this behavior in KO mice” and the “Object memory in novel object recognition (discrimination index)” value [4] was “attenuates deficits in object memory”. For the same molecule, the “Object memory in novel object recognition (discrimination index)” value ([4]; listed as 4-amino-8-(2-fluoro-6-methoxy-phenyl)-N-propyl-cinnoline-3-carboxamide) was “attenuates deficits in object memory; also recorded: greater interest in the novel object”.

In the case of `CC(=O)[C@H]1CC[C@H]2[C@@H]3CC[C@H]4C[C@H](O)CC[C@]4(C)[C@H]3C(=O)C[C@]12C` [alphaxalone], the Anxiety [5] is listed as “reductions in anxiety” and the Audiogenic seizures [6] is listed as “rescue of audiogenic seizures”.

For `Oc1noc2c1CCNC2` [gaboxadol], the “Neuron excitability deficits in the amygdala” value [7] is listed as “restored neuron excitability deficits in the amygdala”, the Hyperactivity [8] is listed as “reduced hyperactivity” and the “Prepulse inhibition (PPI) alterations” value [9] is listed as “reduced prepulse inhibition (PPI) alterations”.
